Laboratory results taken from patent US20230126447A1, “OCULAR DRUG DEPOT FOR COMPLEMENT-MEDIATED DISORDERS” (priority 2020, published 2023).
Where two headings read alike, the source gives them in different places.

Key:
AP activity = assay: Wieslab assay (AP activity in vitro); format: biochemical
[1] = In vitro binding to melanin from Sepia officinalis; conditions: S. officinalis melanin 50 μg/mL, PBS, 37° C., 1 hour
Experimental: […] The melanin solution was stored in the dark at 37° C. until use.
Immediately after the assay, samples were added to an equal volume of warm PBS, aliquots (3 μL each) were removed, added to 100 μL of acetonitrile containing carbutamide as internal standard, and then diluted with water (197 μL). These time-zero samples, prepared in PBS only, were also used as calibration standards.
The assay plates containing samples with and without melanin were incubated in the dark with shaking at 37° C. for 1 hour. Following incubation, the samples were centrifuged for 15 minutes at approximately 4000 rpm at 37° C. to sediment the melanin. Sample supernatant (3 μL) was added to 100 μL of acetonitrile containing the internal standard and then diluted with water (197 μL).
The column was set to a temperature of 55° C. […]
Analytes and internal standards were detected using an Applied Biosystems Sciex API-5500 triple quadrupole mass spectrometer with Agilent 1260 Infinity Binary Pump and Apricot Designs ADDA High-Speed Dual Arm Autosampling System. The instrument was equipped with an electrospray ionization source (600° C.) operated in the positive ion mode. Analytes and internal standards for all samples were monitored in the multiple-reaction-monitoring scan mode.

[2] = Ocular tissue distribution and pharmacokinetics, 15 mg/kg BID oral, nonpigmented New Zealand White rabbits (Example 7); format: in vivo
Experimental: For Groups 2 through 4, blood (approximately 2 mL) was collected via a jugular vein using a syringe and needle and was transferred into tubes containing K2EDTA at approximately 12 hours after the a.m. dose on Day 15 from the two animals designated for sacrifice at approximately 240 hours after the a.m. dose on Day 15. For Groups 2 through 4, two animals/group/time point were sacrificed via an overdose of sodium pentobarbital prior to dosing on Day 15 and at approximately 1, 6, 24, 96, 168, and 240 hours after the a.m. dose on Day 15. Blood (approximately 2 mL) was collected from all animals at sacrifice into tubes containing K2EDTA via exsanguination (cardiac puncture). Blood was maintained on wet ice, in chilled cryoracks, or at approximately 5° C. prior to centrifugation to obtain plasma. Centrifugation began within 1 hour of collection (Deviation). Plasma was placed into 96-well tubes with barcode labels. Plasma was maintained on dry ice prior to storage at approximately −70° C. At the time of sacrifice, both eyes were enucleated, and the following tissues were collected. Each eye was flash-frozen in liquid nitrogen for 15 to 20 seconds. The enucleated eye was placed on dry ice or stored at approximately −70° C. for at least 2 hours. Within approximately 3 days, the frozen matrices were collected as right and left eyes for each matrix into the specific tube type listed. At the time of frozen collection, the ocular tissues were rinsed with saline and blotted dry (as appropriate), weighed, and placed on dry ice. All ocular tissues were collected as single samples.

[3] = Choroid-RPE (OU), male NZW rabbits, Group 4, Day 15, 15 mg/kg/dose BID oral (30 mg/kg/day)
[4] = ICB (OU), male NZW rabbits, Group 4, Day 15, 15 mg/kg/dose BID oral (30 mg/kg/day)
[5] = NZW rabbits, Day 15, 15 mg/kg BID, 96 hr
[6] = NZW rabbits, Day 15, 15 mg/kg BID, 168 hr
[7] = NZW rabbits, Day 15, 15 mg/kg BID, 240 hr
[8] = New Zealand White, rabbit, choroid-RPE, oral, NZW rabbits, Day 15, 15 mg/kg BID, read-out: Mean Choroid-RPE Concentration
[9] = New Zealand White, rabbit, iris-ciliary body, oral, NZW rabbits, Day 15, 15 mg/kg BID, read-out: Mean Iris-Ciliary Concentration
[10] = New Zealand White, rabbit, plasma, oral, NZW rabbits, Day 15, 15 mg/kg BID, read-out: Mean Plasma Concentration
[11] = New Zealand White, rabbit, retina, oral, NZW rabbits, Day 15, 15 mg/kg BID, read-out: Mean Retina Concentration
[12] = New Zealand White, rabbit, plasma, male NZW rabbits, Group 4, Day 15, 15 mg/kg/dose BID oral (30 mg/kg/day)
[13] = Retina (OU), male NZW rabbits, Group 4, Day 15, 15 mg/kg/dose BID oral (30 mg/kg/day)
[14] = plasma, male NZW rabbits, Group 4, Day 15, 15 mg/kg/dose BID oral (30 mg/kg/day)

Structure (SMILES): CC(=O)c1nn(CC(=O)N2C[C@H](F)C[C@H]2C(=O)Nc2cccc(Br)n2)c2ccc(-c3cnc(C)nc3)cc12 [Compound 1, (2S,4R)-1-(2-(3-Acetyl-5-(2-methylpyrimidin-5-yl)-1H-indazol-1-yl)acetyl)-N-(6-bromopyridin-2-yl)-4-fluoropyrrolidine-2-carboxamide]
- IC50 (AP activity): 26 nM
- Bmax (binding capacity) [1]: 137 nmol/mg melanin
- AUC0-12 [2, 3]: 1440 ng·h/g
- AUC0-240 [2, 3]: 2370 ng·h/g
- AUC(0-24) [2, 3]: 1830 ng·h/g
- AUC(0-t) [2, 3]: 1830 ng·h/g
- Ctrough [2, 3]: 50.7 ng/g
- DN AUC0-12 [2, 3]: 95.9 (h*ng/g)/(mg/kg/dose)
- DN AUC0-24 [2, 3]: 122 (h*ng/g)/(mg/kg/day)
- DN AUC0-240 [2, 3]: 158 (h*ng/g)/(mg/kg/day)
- DN Cmax [2, 3]: 19.8 (ng/g)/(mg/kg/day
- AUC0-12 [2, 4]: 356 ng·h/g
- AUC(0-24) [2, 4]: 453 ng·h/g
- AUC(0-t) [2, 4]: 453 ng·h/g
- Ctrough [2, 4]: 14.6 ng/g
- DN AUC0-12 [2, 4]: 23.7 (h*ng/g)/(mg/kg/dose)
- DN AUC0-24 [2, 4]: 30.2 (h*ng/g)/(mg/kg/day)
- DN Cmax [2, 4]: 4.33 (ng/g)/(mg/kg/day)
- Mean Choroid-RPE concentration [2, 5]: BLQ
- Mean plasma concentration [2, 5]: BLQ
- Mean retina concentration [2, 5]: BLQ
- Mean Choroid-RPE concentration [2, 6]: BLQ
- Mean plasma concentration [2, 6]: BLQ
- Mean retina concentration [2, 6]: BLQ
- Mean Choroid-RPE concentration [2, 7]: BLQ
- Mean plasma concentration [2, 7]: BLQ
- Mean retina concentration [2, 7]: BLQ
- concentration at 0 h [2, 8]: 40.3 ng/g
- concentration at 1 h [2, 8]: 296 ng/g
- concentration at 6 h [2, 8]: 68.6 ng/g
- concentration at 24 h [2, 8]: 14.9 ng/g
- Tmax ([2]; New Zealand White, rabbit, choroid-retinal pigment epithelium (choroid-RPE), Choroid-RPE (OU), male NZW rabbits, Group 4, Day 15, 15 mg/kg/dose BID oral (30 mg/kg/day)): 1 h
- Tmax ([2]; New Zealand White, rabbit, iris-ciliary body (ICB), ICB (OU), male NZW rabbits, Group 4, Day 15, 15 mg/kg/dose BID oral (30 mg/kg/day)): 1 h
- Cmax ([2]; New Zealand White, rabbit, iris-ciliary body (ICB), ICB (OU), male NZW rabbits, Group 4, Day 15, 15 mg/kg/dose BID oral (30 mg/kg/day), read-out: Cmax): 64.9 ng/g
- concentration at 1 h [2, 9]: 64.9 ng/g
- concentration at 6 h [2, 9]: 21.2 ng/g
- concentration at 24 h [2, 9]: 1.6 ng/g
- concentration at 0 h [2, 10]: 53.8 ng/mL
- concentration at 1 h [2, 10]: 558 ng/mL
- concentration at 6 h [2, 10]: 179 ng/mL
- concentration at 12 h ([2]; New Zealand White, rabbit, plasma, oral, NZW rabbits, Day 15, 15 mg/kg BID, 12 hr): 82.2 ng/mL
- concentration at 24 h [2, 10]: 11.7 ng/mL
- concentration at 0 h [2, 11]: 36.3 ng/g
- concentration at 1 h [2, 11]: 248 ng/g
- concentration at 6 h [2, 11]: 86.1 ng/g
- concentration at 24 h [2, 11]: 9.18 ng/g
- Tmax ([2]; New Zealand White, rabbit, Retina (OU), male NZW rabbits, Group 4, Day 15, 15 mg/kg/dose BID oral (30 mg/kg/day)): 1 h
- Tmax [2, 12]: 1 h
- half-life [2, 12]: 4.53 h
- AUC0-12 [2, 13]: 1420 ng·h/g
- AUC0-240 [2, 13]: 2160 ng·h/g
- AUC(0-24) [2, 13]: 1830 ng·h/g
- AUC(0-t) [2, 13]: 1830 ng·h/g
- Ctrough [2, 13]: 60.4 ng/g
- DN AUC0-12 [2, 13]: 94.4 (h*ng/g)/(mg/kg/dose)
- DN AUC0-24 [2, 13]: 122 (h*ng/g)/(mg/kg/day)
- DN AUC0-240 [2, 13]: 144 (h*ng/g)/(mg/kg/day)
- DN Cmax [2, 13]: 16.5 (ng/g)/(mg/kg/day)
- AUC(0-t) ([2]; male, New Zealand White, rabbit, plasma, po, 15 mg/kg, plasma, male NZW rabbits, Group 4, Day 15, 15 mg/kg/dose BID oral (30 mg/kg/day), read-out: AUC0-12): 2930 ng·h/mL
- AUC(0-t) ([2]; male, New Zealand White, rabbit, plasma, po, 15 mg/kg, plasma, male NZW rabbits, Group 4, Day 15, 15 mg/kg/dose BID oral (30 mg/kg/day), read-out: AUC0-240): 3910 ng·h/mL
- AUC(0-t) ([2]; male, New Zealand White, rabbit, plasma, po, 15 mg/kg, plasma, male NZW rabbits, Group 4, Day 15, 15 mg/kg/dose BID oral (30 mg/kg/day), read-out: AUC0-t): 3490 ng·h/mL
- Cmax [2, 14]: 558 ng/mL
- Ctrough [2, 14]: 82.2 ng/mL
- DN AUC0-12 [2, 14]: 195 (h*ng/mL)/(mg/kg/dose)
- DN AUC0-24 [2, 14]: 233 (h*ng/mL)/(mg/kg/day)
- DN AUC0-240 [2, 14]: 261 (h*ng/mL)/(mg/kg/day)
- DN Cmax [2, 14]: 37.2 (ng/mL)/(mg/kg/day)
